pIC50: −log10 of the molar value. The source made the active and inactive calls. How the calls were made is not given here.
Target: methionyl-tRNA synthetase (Trypanosoma brucei brucei)
Test: T. brucei MetRS inhibitors, late-stage follow-up, biochemical, luminescence, dose response, round 3 (AID 1053132)
Details: recombinant T. brucei MetRS, luminescence (ATP consumption)

IC50	pIC50	Compound
inactive		CCN(CC)C(=O)C(=O)c1cn(CCNc2cc(Oc3ccccc3)cc(C(F)(F)F)c2)c2ccccc12
	6.73	CCN(CC)C(=O)C(=O)c1cn(CC(=O)Nc2cc(Oc3ccc(F)cc3)cc(C(F)(F)F)c2)c2ccccc12
	5.60	Nc1c(Cl)ncnc1Nc1ccc(C(=O)O)cc1
> 119000 nM (inactive)		CCN(CC)C(=O)C(=O)c1cn(CCNc2cccc(C(F)(F)F)c2)c2ccccc12
	6.77	CCN(CC)C(=O)C(=O)c1cn(CC(=O)Nc2cc(Oc3ccc(OC)cc3)cc(C(F)(F)F)c2)c2ccccc12
inactive		O=C(Cc1ccc(Nc2nc3ccc(Br)cc3[nH]2)cc1)NCCc1cccs1
	6.89	CCN(CC)C(=O)C(=O)c1cn(CC(=O)Nc2cccc(C(F)(F)F)c2)c2ccccc12
inactive		O=C(Cn1cc(C(=O)C(=O)NCc2ccccc2)c2ccccc21)Nc1cc(Oc2ccccc2)cc(C(F)(F)F)c1
	7.24	CCN(CC)C(=O)C(=O)c1cn(CC(=O)Nc2cc(Oc3ccccc3)cc(C(F)(F)F)c2)c2ccccc12
	6.88	CCN(CC)C(=O)C(=O)c1cn(CC(=O)Nc2cc(Oc3ccccc3F)cc(C(F)(F)F)c2)c2ccccc12
> 119000 nM (inactive)		CCN(CC)C(=O)Cc1cn(CC(=O)Nc2cccc(C(F)(F)F)c2)c2ccccc12
	6.79	CCN(CC)C(=O)C(=O)c1cn(CC(=O)Nc2cc(Oc3ccccc3OC)cc(C(F)(F)F)c2)c2ccccc12
